Assay type in all cases: biochemical
Assay [1] relates to debranching enzyme (α-1,6-glucosidase) of the invention from Bacillus sp. APC-9603. As for the experimental part: (§1) To 0.5 ml of a 1% pullulan solution in a 100 mM McIlvaine's buffer solution (pH=5.0) was added 0.5 ml of an enzyme solution, and the system was allowed to react at 50° C. for 30 minutes. The reducing power thus produced was quantitatively determined through a 3,5-dinitrosalicylic acid reaction (the DNS method; cf. Borel et al., Helv. Chim. Acta., 35, 115 (1952)). The activity producing reducing power corresponding to 1 μmol of maltotriose for 1 minute was taken as one unit.

For assay [2], the system named is Promozyme (Novo Nordisk A/S), Enzyme A, debranching enzyme from Bacillus acidopullulyticus. As for the experimental part:
as §1

For assay [3], the system named is DB-250 (Amano Pharmaceutical Co., Ltd.), Enzyme B, debranching enzyme from Bacillus sectorramus. As for the experimental part:
as §1

The mark [4] stands for this setting: Table 5, inhibitor 1 mM, 50 mM acetic acid buffer pH 5.0, 40° C., 30 minutes.
The mark [5] stands for this setting: inhibitor at final concentration 1 mM, 50 mM acetic acid buffer pH 5.0, 40° C., 30 minutes, no inhibitor = 100.
Where [6] appears, read: Table 5, conditions not restated.

Where two headings read alike, the source gives them in different places.

As to `O=C(O)CN(CCN(CC(=O)O)CC(=O)O)CC(=O)O` [EDTA], in assay [1] (pH 5), the “Influence of Inhibitor (residual activity), Enzyme of Invention” value was determined as 90%; the “Inhibition (in words)” value is given as “Slightly inhibited”; the “Residual Activity” value is reported as 90%. Also, the “Influence of Inhibitor (residual activity), Enzyme A” value in assay [2] was found to be 129%. Moreover, in assay [3], the “Influence of Inhibitor (residual activity), Enzyme B” value worked out at 93%.

Regarding `O=C(O)CI` [MIA, monoiodoacetic acid], in assay [1] (pH 5), the “Influence of Inhibitor (residual activity), Enzyme of Invention” value was determined as 105%; the “Inhibition (in words)” value is listed as “Non-inhibited”; the “Residual Activity” value worked out at 105%. For the same molecule, the “Influence of Inhibitor (residual activity), Enzyme A” value in assay [2] worked out at 68%. In addition, the “Influence of Inhibitor (residual activity), Enzyme B” value in assay [3] is listed as 67%.

On to `CCN1C(=O)C=CC1=O` [N-EMI, N-ethylmaleimide], for which, in assay [1] (setting [4]), the “Influence of Inhibitor (residual activity), Enzyme of Invention” value was 104%. In assay [1] (setting [5]), the “Residual Activity” value turned out to be 104%. Also, in assay [1] (pH 5), the “Inhibition (in words)” value was “Non-inhibited”. Further, in assay [2] (setting [6]), the “Influence of Inhibitor (residual activity), Enzyme A” value is 69%. In addition, the “Influence of Inhibitor (residual activity), Enzyme B” value in assay [3] (setting [6]) turned out to be 66%.

Consider `O=C(O)c1cc[c]([Hg][OH])cc1` [p-CMB, p-mercuri-benzoic acid], for which the “Influence of Inhibitor (residual activity), Enzyme of Invention” value in assay [1] (setting [4]) turned out to be 81%. The “Inhibition (in words)” value in assay [1] (inhibitor 1 mM, pH 5.0, 40° C., 30 minutes) was “Slightly inhibited”. The “Residual Activity” value in assay [1] (setting [5]) was found to be 81%. The “Inhibition (in words), Enzyme A” value in assay [2] was “inhibited by p-CMB to a large extent”. The “Influence of Inhibitor (residual activity), Enzyme A” value in assay [2] (setting [6]) is on record as 14%. In addition, in assay [3], the “Inhibition (in words), Enzyme B” value is “inhibited by p-CMB to a large extent”. Also, the “Influence of Inhibitor (residual activity), Enzyme B” value in assay [3] (setting [6]) turned out to be 27%.

Values taken from patent US5387516A, “Heat stable debranching enzyme from a Bacillus microorganism” (priority 1992, dated 1995).
